Laboratory results: publication PMC10460728 (Journal of Pharmacokinetics and Pharmacodynamics, 2023)
Values joined by “and” are separate entries in the source; they are usually repeats but may differ in a detail not shown here. Equal values may be shown once. Read-outs that look alike come from different tables or passages of the source.

Assays:
P-gp = P-gp mRNA induction in cultured human hepatocytes; assay type: cell-based
CYP1A2 [1] = conditions: human, hepatocytes, 50 µmol/L
P-gp and CYP3A = conditions: cited from earlier work
CYP3A and P-gp [2] = test system: CYP3A and P-gp; parameters: method as in PMID 33030266; conditions: assumed in model development, verified with clinical DDI studies; cited from earlier work
[3] = cited from earlier work
[4] = plasma; ref FDA CP review; cited from earlier work
[5] = PBPK models of enzalutamide and M2 (Simcyp)
Excerpt: Many of the physicochemical properties and plasma protein binding data were obtained internally and also referenced from FDA documents, which are available from the FDA website. […] Accordingly, the solution formulation option in the Simcyp model was used.
The PBPK models of CYP2C8 inhibitor (gemfibrozil), CYP3A4 substrate (midazolam), and P-gp substrate (digoxin) were used from the Simcyp software library with models that were verified for their intended purpose.

CYP3A4 [6] = assay: in vitro; conditions: human, freshly isolated, cultured human hepatocytes
P-gp (human MDR1) = P-gp (human MDR1) (Homo sapiens, UniProt P08183); assay: In vitro P-gp inhibition: 3H-digoxin permeation across control and MDR1-expressing LLC-PK1 cell monolayers
Method: MDR1-expressing cells (porcine kidney epithelial LLC-PK1 cells transfected with human MDR1 cDNA) was used. The MDR1-expressing cells were seeded at a density of 4 × 10^4 cells/insert in plates and were incubated in a CO2 incubator (37 °C, CO2: 5%) for 7 to 9 days to prepare cell monolayers. […] After incubation for 4 h at 37 °C, a 70-μL aliquot of the incubation solutions was collected as the analytical sample from the opposite compartment of that spiked with test solutions (receiver compartment). The collected samples were immediately combined with 10 mL of scintillator, and the radioactivity was counted using the LSC. Permeability coefficient (Papp) of ^3H-digoxin was calculated using the following equation: Pappcm/sec=[dQ/dt]/A/C0 where dQ/dt is the transport rate (dpm/sec); A is the membrane area (cm^2); C0 is the initial concentration (dpm/mL). The ratio of permeability coefficient (Papp ratio) was calculated from the basal to apical Papp and apical to basal Papp according to the following equation: Pappratio=BasaltoapicalPapp/ApicaltobasalPapp
Furthermore, the ratios of the Papp ratios in MDR1-expressing cells to the Papp ratios in control cells were calculated as corrected Papp ratio according to the following equation: CorrectedPappratio=PappratiooftheMDR1expressingcells/Pappratioofthecontrolcells
The % of control was calculated from the corrected Papp ratio according to the following equation: \% \,of\,control=CorrectedPappratio\,in\,the\,absence\,or\,presence\,of\,inhibitors/CorrectedPappratio\,in\,the\,absence\,of\,inhibitors×100

[7] = parameters: method as in FDA CP review; conditions: ref FDA CP review; cited from earlier work
[8] = Caco-2 passive permeability; assay type: in vitro ADME; conditions: human, Caco-2, pH 6.5; internal data; read-out: Papp Caco-2 passive permeability (pH6.5:7.5)
CYP3A5 = CYP3A5 (Homo sapiens, UniProt P20815); assay: In vitro CYP3A5 inhibition (internal data); assay type: biochemical
CYP3A4 [9] = target: CYP3A4 (Homo sapiens, UniProt P08684); assay: In vitro CYP3A4 inhibition (internal data); assay type: biochemical
[10] = mean
OAT3 = target: T1, OAT3 (Homo sapiens, UniProt Q8TCC7); assay: In vitro OAT3 inhibition (internal data); assay type: cell-based
T1 sequence (Q8TCC7 1-542): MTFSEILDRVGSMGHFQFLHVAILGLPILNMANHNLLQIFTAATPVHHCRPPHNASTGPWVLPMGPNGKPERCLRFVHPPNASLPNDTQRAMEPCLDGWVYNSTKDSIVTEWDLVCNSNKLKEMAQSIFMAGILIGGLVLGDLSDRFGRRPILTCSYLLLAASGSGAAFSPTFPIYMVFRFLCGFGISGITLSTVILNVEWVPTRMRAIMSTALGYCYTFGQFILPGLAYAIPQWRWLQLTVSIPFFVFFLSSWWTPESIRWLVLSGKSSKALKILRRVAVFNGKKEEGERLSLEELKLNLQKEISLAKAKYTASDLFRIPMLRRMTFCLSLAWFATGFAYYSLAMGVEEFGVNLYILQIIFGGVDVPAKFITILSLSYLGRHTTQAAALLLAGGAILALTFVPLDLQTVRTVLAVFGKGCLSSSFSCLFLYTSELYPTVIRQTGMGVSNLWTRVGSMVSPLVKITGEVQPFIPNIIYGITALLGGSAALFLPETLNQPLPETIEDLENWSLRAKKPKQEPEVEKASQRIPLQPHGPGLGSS

CYP3A4 [11] = test system: CYP3A4
clinical = conditions: human, plasma, po, 160 mg; for Cmax: observed, mean
CYP2C9 = CYP2C9 mRNA induction in cultured human hepatocytes
CYP2C8 = CYP2C8 mRNA induction in cultured human hepatocytes
CYP2B6 = CYP2B6 mRNA induction in cultured human hepatocytes
CYP1A2 [12] = assay: CYP1A2 mRNA induction in cultured human hepatocytes
CYP2C19 = CYP2C19 mRNA induction in cultured human hepatocytes
intestinal P-gp = conditions: multiple-dose 600 mg rifampicin, Western blot; cited from earlier work
CYP3A and P-gp [13] = test system: CYP3A and P-gp; parameters: method as in PMID 33030266; conditions: assumed in model development, verified with clinical DDI studies; cited from earlier work; remark: listed apart in the source
[14] = retrograde calculation from CLpo 0.60 L/h
[15] = once-daily oral 160 mg enzalutamide for 49 days
[16] = single oral 160 mg enzalutamide
[17] = 100 µmol/L (enzalutamide, M2: two lots of hepatocyte)
[18] = 3H-digoxin 1 µmol/L, additive 0.1 µmol/L
[19] = 3H-digoxin 1 µmol/L, additive 0.3 µmol/L
[20] = 3H-digoxin 1 µmol/L, additive 1 µmol/L
[21] = 3H-digoxin 1 µmol/L, additive 3 µmol/L
[22] = 3H-digoxin 1 µmol/L, additive 10 µmol/L
[23] = 3H-digoxin 1 µmol/L, additive 25 µmol/L

P-gp (human MDR1), sequence (P08183 whole entry): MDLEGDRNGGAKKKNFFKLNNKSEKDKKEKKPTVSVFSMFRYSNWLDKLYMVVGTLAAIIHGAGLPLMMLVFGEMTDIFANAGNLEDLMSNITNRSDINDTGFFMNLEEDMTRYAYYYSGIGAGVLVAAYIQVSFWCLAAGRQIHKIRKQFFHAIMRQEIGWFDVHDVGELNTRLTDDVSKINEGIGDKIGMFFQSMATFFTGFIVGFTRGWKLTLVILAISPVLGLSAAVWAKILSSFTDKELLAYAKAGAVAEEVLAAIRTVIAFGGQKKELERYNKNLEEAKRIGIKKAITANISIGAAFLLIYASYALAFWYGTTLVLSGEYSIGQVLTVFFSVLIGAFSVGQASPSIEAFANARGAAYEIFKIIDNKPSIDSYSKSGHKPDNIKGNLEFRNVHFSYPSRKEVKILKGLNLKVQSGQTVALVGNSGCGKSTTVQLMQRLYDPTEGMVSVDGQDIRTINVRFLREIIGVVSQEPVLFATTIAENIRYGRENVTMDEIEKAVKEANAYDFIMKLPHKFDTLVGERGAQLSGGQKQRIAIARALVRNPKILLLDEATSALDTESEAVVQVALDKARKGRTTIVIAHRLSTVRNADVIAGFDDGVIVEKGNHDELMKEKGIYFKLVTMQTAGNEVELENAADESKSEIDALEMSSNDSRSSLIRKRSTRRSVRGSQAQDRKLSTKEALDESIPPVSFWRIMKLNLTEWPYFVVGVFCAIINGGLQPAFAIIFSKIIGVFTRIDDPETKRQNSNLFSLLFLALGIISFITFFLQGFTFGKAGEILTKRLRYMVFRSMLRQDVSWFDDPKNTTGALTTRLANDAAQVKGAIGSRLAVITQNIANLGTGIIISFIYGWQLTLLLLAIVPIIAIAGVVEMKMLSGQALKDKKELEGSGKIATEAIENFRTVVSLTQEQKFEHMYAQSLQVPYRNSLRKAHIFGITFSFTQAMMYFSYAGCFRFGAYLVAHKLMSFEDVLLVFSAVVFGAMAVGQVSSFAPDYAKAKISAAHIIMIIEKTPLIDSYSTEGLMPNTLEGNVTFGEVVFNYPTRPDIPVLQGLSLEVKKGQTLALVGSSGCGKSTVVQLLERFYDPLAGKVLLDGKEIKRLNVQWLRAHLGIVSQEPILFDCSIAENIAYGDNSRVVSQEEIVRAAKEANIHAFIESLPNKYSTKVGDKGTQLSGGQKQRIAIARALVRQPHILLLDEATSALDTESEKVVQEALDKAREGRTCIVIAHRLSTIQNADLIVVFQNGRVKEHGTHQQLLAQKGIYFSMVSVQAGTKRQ
CYP3A4 (Homo sapiens, UniProt P08684), sequence (P08684 whole entry): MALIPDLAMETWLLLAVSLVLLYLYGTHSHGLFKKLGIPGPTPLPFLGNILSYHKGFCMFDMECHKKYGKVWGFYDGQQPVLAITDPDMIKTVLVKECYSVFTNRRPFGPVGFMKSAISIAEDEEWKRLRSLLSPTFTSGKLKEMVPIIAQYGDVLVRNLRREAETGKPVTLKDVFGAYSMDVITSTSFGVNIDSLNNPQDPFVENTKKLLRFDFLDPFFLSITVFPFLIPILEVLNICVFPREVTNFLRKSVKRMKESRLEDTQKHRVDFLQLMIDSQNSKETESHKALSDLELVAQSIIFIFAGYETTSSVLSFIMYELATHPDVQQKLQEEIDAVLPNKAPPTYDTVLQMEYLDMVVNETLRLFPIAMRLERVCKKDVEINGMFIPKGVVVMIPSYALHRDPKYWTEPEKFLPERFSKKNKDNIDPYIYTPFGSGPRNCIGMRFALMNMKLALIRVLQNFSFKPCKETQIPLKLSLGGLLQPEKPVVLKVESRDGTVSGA
CYP3A5, sequence (P20815 whole entry): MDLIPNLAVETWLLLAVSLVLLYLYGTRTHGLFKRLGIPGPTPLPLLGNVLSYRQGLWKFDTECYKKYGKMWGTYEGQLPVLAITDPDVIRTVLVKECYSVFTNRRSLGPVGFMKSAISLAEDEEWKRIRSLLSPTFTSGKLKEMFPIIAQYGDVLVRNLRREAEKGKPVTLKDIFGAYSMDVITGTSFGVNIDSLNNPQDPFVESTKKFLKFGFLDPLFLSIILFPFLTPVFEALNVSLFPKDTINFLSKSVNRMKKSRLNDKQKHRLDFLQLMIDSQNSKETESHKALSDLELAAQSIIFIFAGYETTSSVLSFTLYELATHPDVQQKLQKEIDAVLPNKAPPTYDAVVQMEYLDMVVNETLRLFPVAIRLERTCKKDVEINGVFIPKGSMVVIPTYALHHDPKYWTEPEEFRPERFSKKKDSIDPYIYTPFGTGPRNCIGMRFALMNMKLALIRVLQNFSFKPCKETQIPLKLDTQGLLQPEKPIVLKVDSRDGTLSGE

Structure (SMILES): COc1ccc2[nH]c([S+]([O-])Cc3ncc(C)c(OC)c3C)nc2c1 (stereo not drawn) [Omeprazole, omeprazole, reference compound]
- Fold increase P-gp mRNA (P-gp; 50 µmol/L): 2.38 ± 1.68 fold
- Fold increase CYP1A2 mRNA (CYP1A2 [1]): 46.4 ± 7.2 fold

Structure (SMILES): O=C(NC[C@H]1CN(c2ccc(N3CCOCC3=O)cc2)C(=O)O1)c1ccc(Cl)s1 [Rivaroxaban, rivaroxaban]
- Decrease in AUC by rifampicin (P-gp and CYP3A; rivaroxaban): 49%
- Contribution of CYP3A to hepatic metabolism (CYP3A and P-gp [2]): 61%

Structure (SMILES): CNC(=O)c1ccc(N2C(=S)N(c3ccc(C#N)c(C(F)(F)F)c3)C(=O)C2(C)C)cc1F [Enzalutamide]
- Vss ([3]; PBPK model parameter): 0.967 L/kg
- Estimated bioavailability based on mass balance data ([3]; oral): ≥ 84%
- fu [4]: 0.0244
- CYP3A4 CLint for M2 formation ([5]; PBPK model parameter, see text): 0.002312 mL/min/pmol enzyme
- Peff,man ([5]; calculated from Caco-2 passive permeability calibrated to propranolol): 5.15 10^–4 cm/s
- Contribution of CYP2C8 on enzalutamide elimination ([5]; estimated from clinical DDI study with gemfibrozil): 87%
- CYP2C8 CLint for M2 formation [5, 14]: 0.1518 mL/min/pmol enzyme
- CYP2C8 CLint for other pathway [5, 14]: 0.07475 mL/min/pmol enzyme
- CYP3A4 CLint for other pathway [5, 14]: 0.003617 mL/min/pmol enzyme
- EC50 (CYP3A4 [6]): 1500 nM
- IC50 (P-gp (human MDR1)): 1670 nM
- Ki (P-gp (human MDR1)): 1670 nM
- Log P [7]: 2.98
- Papp [8]: 31 ×10⁻⁶ cm/s
- Ki (CYP3A5): 42000 nM
- Ki (CYP3A4 [9]): 42000 nM
- Cmin, observed [10, 15]: 12000 ng/mL
- Ki (OAT3): 15100 nM
- Indmax on CYP3A4, calibrated (CYP3A4 [11]; calibrated with positive control rifampicin, Simcyp input): 11.43
- AUC (clinical): 322 µg·h/mL
- AUC(0-inf) (clinical): 288 µg·h/mL
- Tmax (clinical): 0.75 h
- half-life (clinical): 77.7 h
- Cmax (clinical; [15]): 16600 ng/mL
- Cmax (clinical; [16]): 5660 ng/mL

Structure (SMILES): CC1(C)C(=O)N(c2ccc(C#N)c(C(F)(F)F)c2)C(=S)N1c1ccc(C(N)=O)c(F)c1 [M2, N-desmethyl enzalutamide]
- fu [4]: 0.0467
- CLint,HLM ([5]; PBPK model parameter, see text): 1.399 μL/min/mg protein
- CYP3A4 contribution to M2 elimination ([5]; set to recover M2 exposure after multiple doses of enzalutamide): 9%
- IC50 (P-gp (human MDR1); read-out: IC50 (P-gp-mediated 3H-digoxin transport), 3H-digoxin 1 µmol/L, MDR1-expressing LLC-PK1 cells): 1090 nM
- Ki (P-gp (human MDR1); read-out: Ki on P-gp, IC50 regarded as Ki, PBPK model input): 1090 nM
- AUCtau, observed [10, 15]: 278.3 µg·h/mL
- Cmax, observed [10, 15]: 12680 ng/mL
- Cmin, observed [10, 15]: 10570 ng/mL
- MPR (MWC), observed [10, 15]: 0.913
- AUCinf, observed [10, 16]: 395 µg·h/mL
- Cmax, observed [10, 16]: 887 ng/mL
- t1/2, observed [10, 16]: 179 h
- Ki (OAT3): 11500 nM

Structure (SMILES): CO[C@H]1/C=C/O[C@@]2(C)Oc3c(C)c(O)c4c(O)c(c(/C=N/N5CCN(C)CC5)c(O)c4c3C2=O)NC(=O)/C(C)=C\C=C\[C@H](C)[C@H](O)[C@@H](C)[C@@H](O)[C@@H](C)[C@H](OC(C)=O)[C@@H]1C [Rifampicin, rifampicin]
- Increase in intestinal P-gp expression (intestinal P-gp): 3.5 fold

Structure (SMILES): COc1ccc(-n2nc(C(N)=O)c3c2C(=O)N(c2ccc(N4CCCCC4=O)cc2)CC3)cc1 [Apixaban, apixaban]
- Decrease in AUC by rifampicin (P-gp and CYP3A; apixaban): 54%
- Contribution of CYP3A to hepatic metabolism (CYP3A and P-gp [13]): 42%
